Converted amounts (≈) assume the structure as drawn. Where two headings read alike, the source gives them in different places.

For this experiment, the system named is S. aureus. The experiment can be described thus: Minimum inhibitory concentrations (MICs) for S. aureus of exemplary compounds (Table 2). The conditions noted are these: Staphylococcus aureus, read-out: MICs. The class given is cell-based. The source says:
Exemplary compounds in accordance with the invention are listed in Table 2 with their minimum inhibitory concentrations (MICs) (μg/mL) for S. aureus:
Furthermore, the antibiotic compounds can be assayed for anti-proliferative or anti-infective properties on a cellular level. For example, where the target organism is a microorganism, the activity of compounds of interest can be assayed by growing the microorganisms of interest in media either containing or lacking the compound. Growth inhibition can be indicative that the molecule could be acting as a protein synthesis inhibitor. […] For this purpose, a panel of bacterial strains can be assembled to include a variety of target pathogenic species, some containing resistance mechanisms that have been characterized. Use of such a panel of organisms permits the determination of structure-activity relationships not only in regards to potency and spectrum, but also with a view to obviating resistance mechanisms. The assays can be performed in microtiter trays according to conventional methodologies as published by The National Committee for Clinical Laboratory Standards (NCCLS) guidelines (NCCLS. M7-A5-Methods for Dilution Antimicrobial Susceptibility Tests for Bacteria That Grow Aerobically; Approved Standard-Fifth Edition. NCCLS Document M100-S12/M7 (ISBN 1-56238-394-9)).

Where [1] appears, read: minimum inhibitory concentrations for S. aureus.

In the case of `CC(=O)NC[C@H]1CN(c2ccc(-c3ccc(CNCCc4ccc(S(N)(=O)=O)cc4)cc3)c(F)c2)C(=O)O1` [Compound 4094, N-[3-(2-Fluoro-4′-{[2-(4-sulfamoyl-phenyl)-ethylamino]-methyl}-biphenyl-4-yl)-2-oxo-oxazolidin-5-(S)-ylmethyl]-acetamide], the MIC under setting [1] was 2 µg/mL (≈ 3.7 µM).
Same read-out and setting: to `CC(=O)NC[C@H]1CN(c2ccc(-c3ccc(Cn4cnc5c(N)ncnc54)cc3)c(F)c2)C(=O)O1` [Compound 1110, N-{3-[4′-(6-Amino-purin-9-ylmethyl)-2-fluoro-biphenyl-4-yl]-2-oxo-oxazolidin-5-(S)-ylmethyl}-acetamide] belongs 1 µg/mL (≈ 2.1 µM); to `CC(=O)NC[C@H]1CN(c2ccc(-c3ccc(CS(=O)(=O)NCc4ccccc4)cc3)c(F)c2)C(=O)O1` [Compound 4170, N-{3-[4′-(Benzylsulfamoyl-methyl)-2-fluoro-biphenyl-4-yl]-2-oxo-oxazolidin-5-(S)-ylmethyl}-acetamide], 128 µg/mL (≈ 250 µM).
On the same count and under the same terms, for `CC(=O)NC[C@H]1CN(c2ccc(-c3ccc(CNCc4ccc(S(N)(=O)=O)cc4)cc3)c(F)c2)C(=O)O1` [Compound 4093, N-(3-{2-Fluoro-4′-[(4-sulfamoyl-benzylamino)-methyl]-biphenyl-4-yl}-2-oxo-oxazolidin-5-(S)-ylmethyl)-acetamide] the value was 8 µg/mL (≈ 15.2 µM).
The same measure, in the same setting: for `CC(=O)NC[C@H]1CN(c2ccc(-c3ccc(CNC4CNC4)cc3)c(F)c2)C(=O)O1` (racemic) [Compound 2011, N-{3-[4′-(Azetidin-3-(R/S)-ylaminomethyl)-2-fluoro-biphenyl-4-yl]-2-oxo-oxazolidin-5-(S)-ylmethyl}-acetamide] the value was 8 µg/mL (≈ 19.4 µM); for `CC(=O)NC[C@H]1CN(c2ccc(-c3ccc(CNNc4ccccn4)cc3)c(F)c2)C(=O)O1` [Compound 2048, N-{3-[2-Fluoro-4′-(N′-pyridin-2-yl-hydrazinomethyl)-biphenyl-4-yl]-2-oxo-oxazolidin-5-(S)-ylmethyl}-acetamide], 0.5 µg/mL (≈ 1.11 µM); for `CC(=O)NC[C@H]1CN(c2ccc(-c3ccc(Cn4cnc5c(Cl)ncnc54)cc3)c(F)c2)C(=O)O1` [Compound 1100, N-{3-[4′-(6-Chloro-purin-9-ylmethyl)-2-fluoro-biphenyl-4-yl]-2-oxo-oxazolidin-5-(S)-ylmethyl}-acetamide], 1 µg/mL (≈ 2.02 µM).
With `CC(=O)NC[C@H]1CN(c2ccc(-c3ccc(C[S+]([O-])c4nccs4)cc3)c(F)c2)C(=O)O1` (stereo partly drawn) [Compound 2036, N-{3-[2-Fluoro-4′-(thiazole-2-sulfinylmethyl)-biphenyl-4-yl]-2-oxo-oxazolidin-5-(S)-ylmethyl}-acetamide], under setting [1], the MIC came out at 1 µg/mL (≈ 2.11 µM).
The same measure, in the same setting: to `CC(=O)NC[C@H]1CN(c2ccc(-c3cccc(CNCc4csnn4)c3)c(F)c2)C(=O)O1` [Compound 4166, N-[3-(2-Fluoro-3′-{[([1,2,3]thiadiazol-4-ylmethyl)-amino]-methyl}-biphenyl-4-yl)-2-oxo-oxazolidin-5-(S)-ylmethyl]-acetamide] belongs 8 µg/mL (≈ 17.6 µM); to `CC(=O)NC[C@H]1CN(c2ccc(-c3ccc(CN(Cc4c[nH]cn4)Cc4cnc[nH]4)cc3)c(F)c2)C(=O)O1` [Compound 4068, N-[3-(2-Fluoro-4′-{[(1H-imidazol-4-ylmethyl)-(3H-imidazol-4-ylmethyl)-amino]-methyl}-biphenyl-4-yl)-2-oxo-oxazolidin-5-(S)-ylmethyl]-acetamide], 128 µg/mL (≈ 247 µM).
On the same count and under the same terms, for `CC(=O)NC[C@H]1CN(c2ccc(-c3ccc(Cn4ccnc4C)cc3)c(F)c2)C(=O)O1` [Compound 1066, N-{3-[2-Fluoro-4′-(2-methyl-imidazol-1-ylmethyl)-biphenyl-4-yl]-2-oxo-oxazolidin-5-(S)-ylmethyl}-acetamide] the value was 1 µg/mL (≈ 2.37 µM); for `CC(=O)NC[C@H]1CN(c2ccc(-c3ccc(C(=O)NCc4ccncc4)nc3)c(F)c2)C(=O)O1` [Compound 4188, 5-{4-[5-(S)-(Acetylamino-methyl)-2-oxo-oxazolidin-3-yl]-2-fluoro-phenyl}-pyridine-2-carboxylic acid (pyridin-4-ylmethyl)-amide], 1 µg/mL (≈ 2.16 µM).
Still for that read-out and setting: to `CC(=O)NC[C@H]1CN(c2ccc(-c3ccc([C@H](CO)N4CCC4)cc3)c(F)c2)C(=O)O1` [Compound 1063, N-{3-[4′-(1-(R)-Azetidin-1-yl-2-hydroxy-ethyl)-2-fluoro-biphenyl-4-yl]-2-oxo-oxazolidin-5-(S)-ylmethyl}-acetamide] belongs 8 µg/mL (≈ 18.7 µM); to `CC(=O)NC[C@H]1CN(c2ccc(-c3ccc(Cn4ccnc4)cc3)c(F)c2)C(=O)O1` [Compound 1008, N-[3-(2-Fluoro-4′-imidazol-1-ylmethyl-biphenyl-4-yl)-2-oxo-oxazolidin-5-(S)-ylmethyl]-acetamide], 0.5 µg/mL (≈ 1.22 µM).
For `CC(=O)NC[C@H]1CN(c2ccc(-c3ccc(CNC(=O)[C@@H]4C=CCN4)cc3)c(F)c2)C(=O)O1` [Compound 4306, 2,5-Dihydro-1H-pyrrole-2-(S)-carboxylic acid {4′-[5-(S)-(acetylamino-methyl)-2-oxo-oxazolidin-3-yl]-2′-fluoro-biphenyl-4-ylmethyl}-amide], the MIC under setting [1] turned out to be 2 µg/mL (≈ 4.42 µM).
Same read-out and setting: to `CC(=O)NC[C@H]1CN(c2ccc(-c3ccc(Cn4ncnn4)cc3)c(F)c2)C(=O)O1` [Compound 1056, N-[3-(2-Fluoro-4′-tetrazol-2-ylmethyl-biphenyl-4-yl)-2-oxo-oxazolidin-5-(S)-ylmethyl]-acetamide] belongs 0.25 µg/mL (≈ 0.609 µM).
On the same count and under the same terms, to `O=C(CCl)NC[C@H]1CN(c2ccc(-c3ccc(Cn4cnnn4)cc3)c(F)c2)C(=O)O1` [Compound 1033, 2-Chloro-N-[3-(2-fluoro-4′-tetrazol-1-ylmethyl-biphenyl-4-yl)-2-oxo-oxazolidin-5-(S)-ylmethyl]-acetamide] belongs 0.25 µg/mL (≈ 0.562 µM).
On to `CC(=O)NC[C@H]1CN(c2cc(F)c(-c3ccc(Cn4cc(CO)nn4)cc3)c(F)c2)C(=O)O1` [Compound 1018, N-{3-[2,6-Difluoro-4′-(4-hydroxymethyl-[1,2,3]triazol-1-ylmethyl)-biphenyl-4-yl]-2-oxo-oxazolidin-5-(S)-ylmethyl}-acetamide], for which the MIC amounted to 1 µg/mL (≈ 2.19 µM).
Regarding `CC(=O)NC[C@H]1CN(c2ccc(-c3ccc(COCc4ccccn4)nc3)c(F)c2)C(=O)O1` [Compound 4195, N-(3-{3-Fluoro-4-[6-(pyridin-2-ylmethoxymethyl)-pyridin-3-yl]-phenyl}-2-oxo-oxazolidin-5-(S)-ylmethyl)-acetamide], under setting [1], the MIC amounted to 1 µg/mL (≈ 2.22 µM).
For the compound `CC(=O)NC[C@H]1CN(c2ccc(-c3ccc(CNC(=O)C4(NC(=O)OC(C)(C)C)CC4)cc3)c(F)c2)C(=O)O1` [Compound 4304, [1-({4′-[5-(S)-(Acetylamino-methyl)-2-oxo-oxazolidin-3-yl]-2′-fluoro-biphenyl-4-ylmethyl}-carbamoyl)-cyclopropyl]-carbamic acid tert-butyl ester], the MIC under setting [1] came to 16 µg/mL (≈ 29.6 µM).
Regarding `COc1nc(C)c(C=CC(=O)NCc2ccc(-c3ccc(N4C[C@H](CNC(C)=O)OC4=O)cc3F)cc2)c(OC)n1` [Compound 4003, N-{4′-[5-(S)-(Acetylamino-methyl)-2-oxo-oxazolidin-3-yl]-2′-fluoro-biphenyl-4-ylmethyl}-3-(2,4-dimethoxy-6-methyl-pyrimidin-5-yl)-acrylamide], under setting [1], the MIC came to 128 µg/mL (≈ 227 µM).
For the compound `CSc1nc(CNCc2ccc(-c3ccc(N4C[C@H](CNC(C)=O)OC4=O)cc3F)cc2)ccc1C#N` [Compound 4128, N-[3-(4′-{[(5-Cyano-6-methylsulfanyl-pyridin-2-ylmethyl)-amino]-methyl}-2-fluoro-biphenyl-4-yl)-2-oxo-oxazolidin-5-(S)-ylmethyl]-acetamide], the MIC under setting [1] worked out at 0.5 µg/mL (≈ 0.962 µM).
On the same count and under the same terms, to `CC(=O)NC[C@H]1CN(c2ccc(-c3ccc(/C=N/Nc4nccc(C(F)(F)F)n4)cc3)c(F)c2)C(=O)O1` [Compound 2042, N-(3-{2-Fluoro-4′-[(4-trifluoromethyl-pyrimidin-2-yl)-hydrazonomethyl]-biphenyl-4-yl}-2-oxo-oxazolidin-5-(S)-ylmethyl)-acetamide] belongs 128 µg/mL (≈ 248 µM).
Same read-out and setting: to `CC(=O)NC[C@H]1CN(c2ccc(-c3ccc(CN(C)Cc4c(C)nc(O)nc4O)cc3)c(F)c2)C(=O)O1` [Compound 4036, N-[3-(4′-{[(2,4-Dihydroxy-6-methyl-pyrimidin-5-ylmethyl)-methyl-amino]-methyl}-2-fluoro-biphenyl-4-yl)-2-oxo-oxazolidin-5-(S)-ylmethyl]-acetamide] belongs 4 µg/mL (≈ 7.85 µM).
On the same count and under the same terms, to `CC(=O)NC[C@H]1CN(c2ccc(-c3ccc(CNC(=O)[C@H](N)Cc4c[nH]c5ccccc45)cc3)c(F)c2)C(=O)O1` [Compound 4307, N-{4′-[5-(S)-(Acetylamino-methyl)-2-oxo-oxazolidin-3-yl]-2′-fluoro-biphenyl-4-ylmethyl}-2-(R)-amino-3-(1H-indol-3-yl)-propionamide] belongs 2 µg/mL (≈ 3.68 µM); to `CC(=O)NC[C@H]1CN(c2ccc(-c3ccc(CN4CCN(c5ncc(C(F)(F)F)cc5Cl)CC4)cc3)c(F)c2)C(=O)O1` [Compound 1038, N-(3-{4′-[4-(3-Chloro-5-trifluoromethyl-pyridin-2-yl)-piperazin-1-ylmethyl]-2-fluoro-biphenyl-4-yl}-2-oxo-oxazolidin-5-(S)-ylmethyl)-acetamide], 128 µg/mL (≈ 211 µM).
As to `CC(=O)NC[C@H]1CN(c2ccc(-c3ccc(CSc4nccs4)cc3)c(F)c2)C(=O)O1` [Compound 2030, N-{3-[2-Fluoro-4′-(thiazol-2-ylsulfanylmethyl)-biphenyl-4-yl]-2-oxo-oxazolidin-5-(S)-ylmethyl}-acetamide], the MIC under setting [1] is 1 µg/mL (≈ 2.19 µM).
